Reference: patent US20250195475A1, “CDK2 INHIBITOR AND PREPARATION METHOD AND USE THEREOF” (INVENTISBIO CO., LTD., priority 2022, published 2025)

How the values were obtained:
CDK2/CyclinE1 = CDK2/CyclinE1 (Homo sapiens (Human), UniProt P24941); test: CDK2 kinase assay (TR-FRET); format: biochemical; conditions: CDK2/CyclinE1 0.5 nM, ATP 50 μM
Procedure, shortened: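 Compounds were preincubated 10 min at room temperature with enzyme in 50 mM HEPES pH 7.5, 10 mM MgCl2, 1 mM EGTA, 2 mM DTT, 0.01% Tween-20, BSA. Substrate reaction ran 30 min at 25 °C, was stopped with EDTA and read by LANCE TR-FRET (ex 320/em 665 nm) after 1 h. IC50 came from a four-parameter fit of % inhibition.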

GSK3β = GSK3β (Homo sapiens (Human), UniProt P49841); test: GSK3β kinase assay (TR-FRET); format: biochemical; conditions: GSK3β 1.0 nM, ATP 8.0 μM
Sequence of GSK3β (P49841 whole entry): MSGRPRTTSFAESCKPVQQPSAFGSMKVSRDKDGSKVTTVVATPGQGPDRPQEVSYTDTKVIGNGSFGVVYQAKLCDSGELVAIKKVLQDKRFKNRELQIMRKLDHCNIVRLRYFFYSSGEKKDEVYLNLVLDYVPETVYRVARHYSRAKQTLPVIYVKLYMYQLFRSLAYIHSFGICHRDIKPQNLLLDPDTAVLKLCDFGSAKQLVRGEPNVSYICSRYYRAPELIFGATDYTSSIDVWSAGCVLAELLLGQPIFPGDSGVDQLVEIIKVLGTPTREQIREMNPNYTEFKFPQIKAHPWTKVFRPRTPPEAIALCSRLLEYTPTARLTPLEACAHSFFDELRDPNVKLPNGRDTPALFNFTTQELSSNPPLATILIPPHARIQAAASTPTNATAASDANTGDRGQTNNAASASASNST
Method: (§1) The purpose of these assays is to evaluate the inhibition of small molecule inhibitors by using TR-FRET assay.
(§2) Compound Preparation. Dissslove the compounds into DMSO solution to make 10 mM DMSO stock. Serially dilute the stock solution from highest concentration down to lowest in DMSO to make the compound stock plate (100× stock plates). To make 5× compound intermediate plate, add 38 μL of assay buffer (50 mM HEPES, pH 7.5, 0.05 mg/mL BSA, 10 mM MgCl2, 1 mM EGTA, 0.01% Tween-20, 2 mM DTT) into each well of the V-bottom plate; then transfer 2 μL of the stock compound solution of each concentration from the compound stock plate (100× stock), and mix well.
(§3) Enzyme reaction. Transfer 2 μL compound from 5× intermediate plate into assay plate, then add 4 μL/well 2.5× Enzyme mix to assay plate, incubation for 10 min at room temperature. For positive control wells, add 4 μL/well assay buffer instead of Enzyme mix. Then add 4 μL/well 2.5× Substrate mix to assay plate, and incubation at 25° C. for 30 min at room temperature. After reaction, 10 μL 2× Detection mix (final 15 mM EDTA, 1× LANCE Detection Buffer, 0.5 nM Detection antibody) was added and incubated for 1 h prior to detection with excitation and emission at 320 and 665 nm (Tecan Spark® TR-FRET mode Tecan).
(§4) Inhibition rate (IR) of the tested compounds was determined by the following formula: IR (%)=(average High control−compound well)/(average High control−average Low control)*100%. Fit the compound IC50 from non-linear regression equation: Y=Bottom+(Top−Bottom)/(1+10^((Log IC50−X)*HillSlope)). X: Log of cpd concentration; Y: Inhibition rate (TR); Top and Bottom: Plateaus in same units as Y, log IC50: same log units as X; HillSlope: Slope factor or Hill slope.

CDK1/CyclinB1 = CDK1/CyclinB1 (Homo sapiens (Human), UniProt P06493); test: CDK1 kinase assay (TR-FRET); format: biochemical; conditions: CDK1/CyclinB 7.5 nM, ATP 17 μM
Sequence of CDK1/CyclinB1 (P06493 whole entry): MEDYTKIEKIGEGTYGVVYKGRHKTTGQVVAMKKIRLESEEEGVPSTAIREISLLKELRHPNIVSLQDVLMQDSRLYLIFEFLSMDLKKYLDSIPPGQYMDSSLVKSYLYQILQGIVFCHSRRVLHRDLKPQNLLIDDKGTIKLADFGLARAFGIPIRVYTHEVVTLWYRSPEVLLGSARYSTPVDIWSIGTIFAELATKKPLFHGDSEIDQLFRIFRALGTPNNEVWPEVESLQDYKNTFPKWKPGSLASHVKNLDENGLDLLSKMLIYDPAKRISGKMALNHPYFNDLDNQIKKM
Sequence of CDK1/CyclinB1 (P14635 whole entry partner): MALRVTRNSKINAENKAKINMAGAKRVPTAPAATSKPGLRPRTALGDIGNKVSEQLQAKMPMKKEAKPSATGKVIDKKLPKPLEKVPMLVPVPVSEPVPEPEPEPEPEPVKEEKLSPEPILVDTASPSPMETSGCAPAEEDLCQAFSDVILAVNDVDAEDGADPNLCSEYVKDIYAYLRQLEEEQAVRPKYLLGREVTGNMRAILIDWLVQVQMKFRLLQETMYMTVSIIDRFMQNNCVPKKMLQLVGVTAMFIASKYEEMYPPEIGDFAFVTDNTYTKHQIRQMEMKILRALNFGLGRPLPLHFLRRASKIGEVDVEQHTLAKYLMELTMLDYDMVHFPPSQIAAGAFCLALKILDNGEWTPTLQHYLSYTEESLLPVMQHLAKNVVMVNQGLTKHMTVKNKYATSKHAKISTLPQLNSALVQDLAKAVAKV
Method: as §1, §2, §3, §4

CDK9/CyclinT1 = CDK9/CyclinT1 (Homo sapiens (Human), UniProt P50750); test: CDK9 kinase assay (TR-FRET); format: biochemical; conditions: CDK9/CyclinT1 1.0 nM, ATP 3.5 μM
Sequence of CDK9/CyclinT1 (P50750 whole entry): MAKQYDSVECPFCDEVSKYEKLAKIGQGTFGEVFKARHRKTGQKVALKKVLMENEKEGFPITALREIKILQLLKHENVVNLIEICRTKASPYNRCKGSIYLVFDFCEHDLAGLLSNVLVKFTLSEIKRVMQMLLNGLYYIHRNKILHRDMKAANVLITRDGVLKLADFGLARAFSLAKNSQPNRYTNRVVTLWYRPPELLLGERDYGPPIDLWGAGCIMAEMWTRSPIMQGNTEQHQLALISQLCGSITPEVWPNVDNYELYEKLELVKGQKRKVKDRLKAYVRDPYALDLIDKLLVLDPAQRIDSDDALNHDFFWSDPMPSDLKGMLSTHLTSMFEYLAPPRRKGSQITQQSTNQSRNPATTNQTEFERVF
Sequence of CDK9/CyclinT1 (O60563 whole entry partner): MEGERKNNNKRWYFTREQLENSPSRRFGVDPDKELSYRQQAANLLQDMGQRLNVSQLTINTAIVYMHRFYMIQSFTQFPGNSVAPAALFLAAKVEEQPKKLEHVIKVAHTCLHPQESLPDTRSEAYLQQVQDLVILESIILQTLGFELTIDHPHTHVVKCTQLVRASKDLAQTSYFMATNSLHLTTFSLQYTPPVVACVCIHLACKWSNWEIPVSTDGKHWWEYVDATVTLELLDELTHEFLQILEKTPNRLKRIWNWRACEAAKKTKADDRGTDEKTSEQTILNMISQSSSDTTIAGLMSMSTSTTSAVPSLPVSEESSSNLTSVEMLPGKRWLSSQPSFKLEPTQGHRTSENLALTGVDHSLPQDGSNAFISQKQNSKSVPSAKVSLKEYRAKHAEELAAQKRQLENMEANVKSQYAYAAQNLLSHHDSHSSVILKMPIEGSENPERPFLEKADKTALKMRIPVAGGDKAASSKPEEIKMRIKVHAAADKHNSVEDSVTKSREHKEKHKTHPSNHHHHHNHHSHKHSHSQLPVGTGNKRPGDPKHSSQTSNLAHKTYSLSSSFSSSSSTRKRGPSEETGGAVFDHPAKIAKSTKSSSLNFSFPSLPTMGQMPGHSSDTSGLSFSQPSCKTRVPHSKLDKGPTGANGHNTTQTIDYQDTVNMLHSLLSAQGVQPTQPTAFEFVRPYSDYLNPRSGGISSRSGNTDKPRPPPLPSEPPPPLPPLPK
Method: as §1, §2, §3, §4

OVCAR3 cancer cells = test: OVCAR3 proliferation assay (CellTiter-Glo); format: cell-based; conditions: Homo sapiens, OVCAR-3, 144 h, 6 days incubation, read-out: OVCAR3 CTG IC50
Method: The OVCAR3 cancer cells were cultured at temperature 37° C., 5% CO2 incubator. The cells were routinely subcultured. The cells growing in an exponential growth phase were harvested and counted for plating. Plate 100 μL of cell suspension into the assay plates. Incubate the assay plates at 37° C., 5% CO2, 95% air and 100% relative humidity overnight. The compounds to be tested were dissolved in dimethyl sulfoxide and prepared with a stock concentration of 10 mM. Serially dilute the stock solution from highest concentration down to lowest in DMSO to make the compound stock plate (200× stock plates). Add 0.5 μL of the 200× compound of each well into the cells in assay plates. The final DMSO concentration was 0.5%. Return the assay plate into incubator and incubate for 6 days. The procedures were performed according to the Promega CellTiter-Glo Luminescent Cell Viability Assay Kit to detect cell viability.
as §4, with “(IR);” for “(TR);”, “Y;” for “Y,”

CDK4/CyclinD1 = CDK4/CyclinD1 (Homo sapiens (Human), UniProt P11802); test: CDK4 kinase assay (TR-FRET); format: biochemical; conditions: CDK4/CyclinD1 0.50 nM, ATP 225 μM
Sequence of CDK4/CyclinD1 (P11802 whole entry): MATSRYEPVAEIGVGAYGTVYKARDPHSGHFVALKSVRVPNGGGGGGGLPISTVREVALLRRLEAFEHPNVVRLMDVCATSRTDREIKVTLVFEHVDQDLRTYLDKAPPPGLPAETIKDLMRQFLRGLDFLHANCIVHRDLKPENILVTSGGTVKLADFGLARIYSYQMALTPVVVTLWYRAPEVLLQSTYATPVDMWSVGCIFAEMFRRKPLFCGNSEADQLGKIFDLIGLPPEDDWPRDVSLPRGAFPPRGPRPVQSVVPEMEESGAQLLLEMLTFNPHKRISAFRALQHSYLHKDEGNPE
Sequence of CDK4/CyclinD1 (P24385 whole entry partner): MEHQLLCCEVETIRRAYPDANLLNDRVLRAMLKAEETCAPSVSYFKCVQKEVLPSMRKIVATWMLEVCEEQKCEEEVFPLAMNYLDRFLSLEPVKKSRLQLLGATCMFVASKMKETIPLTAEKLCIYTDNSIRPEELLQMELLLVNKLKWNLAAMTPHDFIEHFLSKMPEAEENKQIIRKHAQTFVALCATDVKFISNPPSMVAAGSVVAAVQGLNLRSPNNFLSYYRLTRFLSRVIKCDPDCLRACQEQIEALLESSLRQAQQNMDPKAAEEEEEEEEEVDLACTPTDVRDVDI
Method: as §1, §2, §3, §4

CDK6/CyclinD3 = CDK6/CyclinD3 (Homo sapiens (Human), UniProt Q00534); test: CDK6 kinase assay (TR-FRET); format: biochemical; conditions: CDK6/CyclinD3 0.50 nM, ATP 140 μM
Sequence of CDK6/CyclinD3 (Q00534 whole entry): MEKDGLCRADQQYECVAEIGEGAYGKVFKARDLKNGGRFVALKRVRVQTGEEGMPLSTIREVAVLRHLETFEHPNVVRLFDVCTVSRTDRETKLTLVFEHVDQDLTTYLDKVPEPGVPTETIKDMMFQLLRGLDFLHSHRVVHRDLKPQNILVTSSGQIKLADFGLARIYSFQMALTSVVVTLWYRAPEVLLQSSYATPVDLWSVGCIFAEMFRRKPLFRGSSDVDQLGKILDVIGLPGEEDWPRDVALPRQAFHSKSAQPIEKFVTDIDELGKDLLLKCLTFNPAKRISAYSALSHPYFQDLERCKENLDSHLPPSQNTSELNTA
Sequence of CDK6/CyclinD3 (P30281 whole entry partner): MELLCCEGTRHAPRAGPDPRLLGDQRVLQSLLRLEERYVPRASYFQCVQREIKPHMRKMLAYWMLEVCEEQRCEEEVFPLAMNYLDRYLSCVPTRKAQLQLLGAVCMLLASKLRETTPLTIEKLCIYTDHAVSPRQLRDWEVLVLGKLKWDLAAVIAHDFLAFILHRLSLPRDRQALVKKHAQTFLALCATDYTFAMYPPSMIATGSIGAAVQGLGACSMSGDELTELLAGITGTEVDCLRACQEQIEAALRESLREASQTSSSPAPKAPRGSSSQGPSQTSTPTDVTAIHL
Method: as §1, §2, §3, §4

Row | SMILES | IC50 (CDK2/CyclinE1) | IC50 (GSK3β) | IC50 (CDK1/CyclinB1) | IC50 (CDK9/CyclinT1) | IC50 (OVCAR3 cancer cells) | IC50 (CDK4/CyclinD1) | IC50 (CDK6/CyclinD3)
1 | CCS(=O)(=O)N1CC[C@@H](C(=O)Nc2cc([C@H]3CC[C@@H](OC(=O)NC(C)C)C3)[nH]n2)C1 [Compound 49] | 2.2 nM | 395 nM | 132 nM |  |  |  | 
2 | CC1(NC(=O)OC2COC(c3cc(NC(=O)Cc4cc(F)cc(F)c4)n[nH]3)C2)CCOC1 (stereo not shown) [Compound 52] | 1.6 nM | 1000 nM | 111 nM |  |  | 1000 nM | 1000 nM
3 | C#C[C@H]1C[C@@H]1C(=O)Nc1cc([C@H]2CC[C@@H](OC(=O)NC(C)C)C2)[nH]n1 [Compound 41] | 0.9 nM | 572 nM |  |  | 193 nM | 306 nM | 254 nM
4 | CC[C@H](C)NC(=O)O[C@@H]1CC[C@H](c2cc(NC(=O)[C@H]3C[C@@H]3COC)n[nH]2)C1 [Compound 33] | 1.9 nM |  | 118 nM |  |  | 652 nM | 574 nM
5 | CC(C)(C)NC(=O)O[C@@H]1CC[C@H](c2cc(NC(=O)[C@@H]3CCN(S(C)(=O)=O)C3)n[nH]2)C1 [Compound 84] | 1.6 nM |  |  |  | 74 nM |  | 
6 | CC(C)NC(=O)O[C@@H]1CC[C@H](c2cc(NC(=O)[C@@H]3CCN(S(C)(=O)=O)C3)n[nH]2)C1 [Compound 25] | 1.2 nM |  | 54.9 nM |  |  | 510 nM | 899 nM

Second part, the molecule after the results:

Row | IC50 (CDK2/CyclinE1) | IC50 (GSK3β) | IC50 (CDK1/CyclinB1) | IC50 (CDK9/CyclinT1) | IC50 (OVCAR3 cancer cells) | IC50 (CDK4/CyclinD1) | IC50 (CDK6/CyclinD3) | SMILES
7 | 1.1 nM | 381 nM | 72.6 nM |  |  |  |  | Cn1nccc1C(=O)Nc1cc([C@@H]2C[C@H](OC(=O)NC34CC(C3)C4)CO2)[nH]n1 [Compound 97]
8 | 1.2 nM |  | 101 nM | 131 nM |  |  |  | CCC(C)(C)NC(=O)O[C@@H]1CO[C@H](c2cc(NC(=O)c3ccnn3C)n[nH]2)C1 [Compound 191]
9 | 0.9 nM |  |  |  | 237 nM |  |  | CC(C)NC(=O)O[C@@H]1CC[C@H](c2cc(NC(=O)C34CC(C#N)(C3)C4)n[nH]2)C1 [Compound 109]
10 | 1.5 nM | 706 nM | 74.8 nM |  |  |  |  | CC[C@H](C)NC(=O)O[C@@H]1CO[C@H](c2cc(NC(=O)c3ccnn3C)n[nH]2)C1 [Compound 100]
11 | 1.1 nM |  | 69.4 nM | 210 nM |  |  |  | C#C[C@H]1C[C@@H]1C(=O)Nc1cc([C@H]2CC[C@@H](OC(=O)NC3(C)COC3)C2)[nH]n1 [Compound 180]
12 | 1.2 nM |  | 60.9 nM | 1000 nM |  |  |  | CC(C)NC(=O)O[C@@H]1CC[C@H](c2cc(NC(=O)C3CC(C)N(S(C)(=O)=O)C3)n[nH]2)C1 (single isomer, unassigned) [Compound 143]
